# Data as given in publication PMC10584882 (Communications Biology, 2023).
# Values joined by “and” are separate entries in the source; they are usually repeats but may differ in a detail not shown here. Identical values can stand only once. “Also recorded” adds a separate entry of the source.
# What was measured:
# CatL = target: T1, CatL (Homo sapiens, UniProt P07711); assay: Cathepsin inhibition test, CatL; format: biochemical; settings: for Residual activity (Vi/V0): Fig. S3 panel b, single replicates
# T1 construct: made in house
# LC-HK2 cells [1] = assay: Fluorescence microscopy, S-protein vesicle size in infected LC-HK2 cells; format: cell-based, human; settings: 1.5 µM, versus control
# Experimental: LC-HK2 was cultivated on coverslips (13 mm diameter) to approximately 80% confluence. The cells were pre-treated for 2 h with 1.5 µM of S-Calpeptin diluted in DMEM supplemented with 2.5% FBS. The compounds were removed, and SARS-CoV-2 strain diluted in DMEM supplemented with 2.5% FBS was added to LC-HK2 cells at M.O.I of 0.05, allowing absorption for 1 h. The viral inoculum was removed, and cells were gently washed with PBS without calcium and magnesium. The cells were incubated in the continued presence of 1.5 µM of S-Calpeptin diluted in DMEM supplemented with 2.5% FBS and were examined by fluorescence microscopy at the time points 32, 40, 48, 56, 64 and 72 h post-infection.
# For this purpose, the cells were fixed and permeabilized with 3.7% formaldehyde solution (Sigma-Aldrich, F1635) containing 0.2% Triton X-100 in PBS 1×. […] The images were captured using fluorescence range intensity adjusted identically within each experimental series.
# Vesicles size quantifications were obtained from 2D maximum projections of Z stacks exported as grayscale TIFs (16-bit depth) using Automated Image Analysis in Zen 2.6 blue software (ZEISS). […]
# In the Fluorescence microscopy evaluation, the P-values were generated by unpaired t-test using GraphPad Prism version 8.00 (La Jolla, CA, USA, www.graphpad.com). […]
# SARS-CoV-2 = assay: Viral loading determination via RT-qPCR in VERO-CCL81 cells; format: cell-based; settings: for Viral titer (% control): VERO CCL81, RT-qPCR, experiments 1 and 2
# VERO-CCL81 cells = assay: Cell viability assay (CellTiter-Glo), VERO-CCL81; format: cell-based; settings: for Cell viability (% control): VERO CCL81, 72 h, replicates of experiments 1 and 2
# Experimental: (§1) VERO-CCL81 was seeded in 96-well plates at a density of 1.5×10^4 cells/well, while LC-HK2 was seeded at a density of 3×10^4 cells/well, following 24 h incubation at 37 °C and 5% CO2 atmosphere. The cell culture media was replaced by serial dilutions of the compounds and the cell viability was determined 72 h post-treatment via CellTiter-Glo® Luminescent Cell Viability Assay (Promega), following the manufacturer’s instructions. Luminescent signal was recorded using a CLARIOstar multi-mode microplate reader (BMG Labtech, Germany). Graphs were generated using GraphPad Prism software version 8.0 (La Jolla, CA, USA, www.graphpad.com). Samples deemed to be technical failures and extreme outlier were removed.
# LC-HK2 cells [2] = assay: Cell viability assay (CellTiter-Glo), LC-HK2; format: cell-based, human; settings: for Cell viability (% control): LC-HK2, 72 h, replicates
# Experimental: as §1
# T1 sequence (P07711 114-333): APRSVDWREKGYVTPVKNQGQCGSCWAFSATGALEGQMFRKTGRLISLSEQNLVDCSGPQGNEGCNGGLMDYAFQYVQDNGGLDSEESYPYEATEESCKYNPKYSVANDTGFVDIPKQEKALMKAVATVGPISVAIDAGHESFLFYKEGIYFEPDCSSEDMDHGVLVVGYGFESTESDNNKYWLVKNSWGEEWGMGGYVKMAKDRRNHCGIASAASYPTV
smiles,measurement,setting,value
CCCC[C@H](NC(=O)[C@H](CC(C)C)NC(=O)OCc1ccccc1)C(O)S(=O)(=O)[O-].[Na+] (stereo partly shown) [S-Calpeptin],Residual activity (Vi/V0),"CatL; inhibitor 0.010 nM, 10 pM",1.426 and 1.05 and 1.025 and 1.009 and 1.011 and 1.078 and 1.028 and 1.031 and 1.036 and 1.201
same,Residual activity (Vi/V0),"CatL; inhibitor 0.018 nM, 18 pM",1.349 and 1.024 and 1.036 and 0.8728 and 0.9988 and 0.9818 (2×) and 1.042 and 1.062 and 1.149
same,Residual activity (Vi/V0),"CatL; inhibitor 0.032 nM, 32 pM",1.453 and 0.9142 and 1.1 and 1.088 and 1.079 and 0.9024 and 0.9567 and 1.006 and 0.9803 and 1.2694
same,Residual activity (Vi/V0),"CatL; inhibitor 0.058 nM, 58 pM",1.377 and 1.0256 and 0.8968 and 0.9231 and 0.8862 and 0.9577 and 1.001 and 1.006 and 1.052 and 1.254
same,Residual activity (Vi/V0),"CatL; inhibitor 0.105 nM, 0.000105 µM",1.053 and 0.914 and 0.68 and 0.6925 and 0.711 and 0.8569 and 0.909 and 1.0072 and 0.8377 and 1.071
same,Residual activity (Vi/V0),"CatL; inhibitor 0.189 nM, 0.000189 µM",0.9886 and 0.7158 and 0.5095 and 0.5746 and 0.5088 and 0.7745 and 0.7818 and 0.8193 and 0.7501 and 1.054
same,Residual activity (Vi/V0),"CatL; inhibitor 0.340 nM, 0.00034 µM",0.5984 and 0.5107 and 0.3117 and 0.3431 and 0.2757 and 0.5388 and 0.5659 and 0.5589 and 0.4129 and 0.6122
same,Residual activity (Vi/V0),"CatL; inhibitor 0.612 nM, 0.000612 µM",0.6669 and 0.3311 and 0.2683 and 0.3139 and 0.2767 and 0.6359 and 0.6301 and 0.62 and 0.515 and 0.8313
same,Residual activity (Vi/V0),"CatL; inhibitor 1.103 nM, 0.001103 µM",0.5114 and 0.2133 and 0.2013 and 0.1965 and 0.1624 and 0.4143 and 0.3924 and 0.3311 and 0.3975 and 0.5758
same,Residual activity (Vi/V0),"CatL; inhibitor 1.985 nM, 0.001985 µM",0.3099 and 0.145 and 0.1192 and 0.1108 and 0.1144 and 0.3088 and 0.318 and 0.3267 and 0.2219 and 0.2968
same,Ki,"CatL; mean with standard deviation and 95% confidence interval, pH 5.5, 37 °C",0.148 nM
same,impact on vesicle morphology / S-protein vesicle size,LC-HK2 cells [1],did not reveal significant differences; also recorded: no substantial impact on vesicle morphology
same,Viral titer (% control),SARS-CoV-2; 0.0781 μM,100 % control
same,Viral titer (% control),SARS-CoV-2; 0.1563 μM,100 % control
same,Viral titer (% control),SARS-CoV-2; 0.3125 μM,100 % control
same,Viral titer (% control),"SARS-CoV-2; 0.625 μM, listed as S-Calpepin",65 % control and 61.77 % control
same,Viral titer (% control),"SARS-CoV-2; 1.25 μM, listed as S-Calpepin",24 % control and 43.33 % control
same,Viral titer (% control),"SARS-CoV-2; 2.5 μM, listed as S-Calpepin",24.98 % control and 48.08 % control
same,Viral titer (% control),SARS-CoV-2; 5 μM,27.38 % control
same,EC50,"SARS-CoV-2; VERO-CCL81, RT-qPCR, 48 h post-infection, read-out: Viral titer EC50",700 nM
same,Cell viability (% control),VERO-CCL81 cells; 0.0781 μM,99.91 % control and 99.99 % control and 93.43 % control
same,Cell viability (% control),VERO-CCL81 cells; 0.1563 μM,101.27 % control and 99.33 % control and 91.02 % control
same,Cell viability (% control),VERO-CCL81 cells; 0.3125 μM,98.12 % control and 96.79 % control and 88.9 % control and 104.51 % control and 93.11 % control and 88.49 % control
same,Cell viability (% control),VERO-CCL81 cells; 0.625 μM,102.02 % control and 99.32 % control and 91.53 % control and 106.07 % control and 99.18 % control and 92.52 % control
same,Cell viability (% control),VERO-CCL81 cells; 1.25 μM,101.8 % control and 101.21 % control and 92.78 % control and 102.28 % control and 98.11 % control and 94.97 % control
same,Cell viability (% control),VERO-CCL81 cells; 2.5 μM,103.7 % control and 100.66 % control and 93.92 % control and 107.86 % control and 99.28 % control and 84.04 % control
same,Cell viability (% control),VERO-CCL81 cells; 5 μM,103.66 % control and 103.11 % control and 94.78 % control and 109.88 % control and 106.46 % control and 91.66 % control
same,Cell viability (% control),VERO-CCL81 cells; 10 μM,95.16 % control and 96.86 % control and 93.25 % control and 107.42 % control and 101.38 % control and 83.78 % control
same,cytotoxicity (in words),"VERO-CCL81 cells; VERO-CCL81, 72 h",no cytotoxicity up to low micromolar concentrations
same,cytotoxicity (in words),"LC-HK2 cells [2]; LC-HK2, 72 h",no cytotoxicity up to low micromolar concentrations
same,Cell viability (% control),LC-HK2 cells [2]; 0.0006 μM,101.91 % control and 100.87 % control and 100.74 % control
same,Cell viability (% control),LC-HK2 cells [2]; 0.0012 μM,103 % control and 98.5 % control and 94.37 % control
same,Cell viability (% control),LC-HK2 cells [2]; 0.0024 μM,103.56 % control and 100.06 % control and 97.94 % control
same,Cell viability (% control),LC-HK2 cells [2]; 0.0049 μM,100.56 % control and 101.52 % control and 96.13 % control
same,Cell viability (% control),LC-HK2 cells [2]; 0.0098 μM,103.39 % control and 98.29 % control and 93.66 % control
same,Cell viability (% control),LC-HK2 cells [2]; 0.0195 μM,101 % control and 102.2 % control and 97.31 % control
same,Cell viability (% control),LC-HK2 cells [2]; 0.0391 μM,101.11 % control and 100.82 % control and 93.61 % control
same,Cell viability (% control),LC-HK2 cells [2]; 0.0781 μM,95.36 % control and 95.43 % control and 89.73 % control and 94.91 % control and 94.76 % control and 87.15 % control
same,Cell viability (% control),LC-HK2 cells [2]; 0.1563 μM,94.91 % control and 93.6 % control and 89 % control and 98.33 % control and 105.61 % control and 98.34 % control
same,Cell viability (% control),LC-HK2 cells [2]; 0.3125 μM,97.71 % control and 92.81 % control and 89.53 % control and 99.96 % control and 101.2 % control
same,Cell viability (% control),LC-HK2 cells [2]; 0.625 μM,99.27 % control and 95.19 % control and 89.18 % control and 98.53 % control and 102.88 % control and 100.16 % control
same,Cell viability (% control),LC-HK2 cells [2]; 1.25 μM,94.67 % control and 92.11 % control and 87.48 % control and 95.09 % control and 95.4 % control and 94.79 % control
same,Cell viability (% control),LC-HK2 cells [2]; 2.5 μM,94.03 % control and 92.7 % control and 88.37 % control and 89.79 % control and 94.67 % control and 93.9 % control
same,Cell viability (% control),LC-HK2 cells [2]; 5 μM,91.36 % control and 87.95 % control and 86.97 % control and 86.06 % control and 93.58 % control and 92 % control
same,Cell viability (% control),LC-HK2 cells [2]; 10 μM,83.09 % control and 79.77 % control and 75 % control and 90.37 % control and 93.49 % control and 89.11 % control
same,Cell viability (% control),LC-HK2 cells [2]; 100 μM,73.52 % control and 81.33 % control and 73.97 % control
